According to patent US20210261495A1, “COMPOSITIONS AND METHODS OF USING ITACONIC ACID DERIVATIVES” (ERGON PHARMACEUTICALS, LLC, priority 2018, published 2021):

System: C6-IRG1-9 rat glioma cells
Assay: C6-IRG1-9 rat glioma cell proliferation, CyQuant
Assay type: cell-based
Details: various concentrations, 48 hrs
Method: Tumor Cell Proliferation Assay. This assay was used to assess the anti-tumor properties of a therapeutic agent in vitro. In a typical proliferation assay, cells were cultured to near confluency in the appropriate media. Subsequently, the cells were trypsinized and plated onto 96-well plates at 2,000 or 5,000 cell per well. The cells were cultured for 48 to 96 hours in the presence or absence of the therapeutic agent. Cell proliferation was then determined using spectrophotometry (MTT assay, BrdU assay) or fluorimetry (Cyquant assay).
Inhibition of C6-IRG1-9 Rat Glioma cell proliferation. C6-IRG1-9 cells are rat C6 glioma cells that have been transfected to overexpress IRG1. Overexpression of IRG1 is maintained by culturing the cells in DMEM media containing 0.55 μg/mL puromycin. For the proliferation assays, the cells were plated onto a 96-well plate at a density of 2,000 cells/well. The cells were allowed to adhere overnight; they were subsequently treated with various concentrations of compounds of Formula (2) for 48 hrs. At the end of the incubation period, the number of cells is assessed using the CyQuant Cell Proliferation kit (Thermo Fisher) according to the manufacturer's instructions. The results, shown in FIG. 3, indicate that compounds of Formula (2) are able to reduce or abrogate growth of C6-IRG1-9 cells. In FIG. 3, cell proliferation is expressed as % Untreated Control, defined as: […]
where t is the number of cells present in a treated well at the end of the incubation period, c is the number of cells present in an untreated well at the end of the incubation period, and s is the initial number of cells in the wells prior to initiation of treatment.

| Structure (SMILES) | proliferation of C6-IRG1-9 rat glioma cells |
| --- | --- |
| CC(C)=C(CC(=O)O)C(=O)O [(3), 2-(propan-2-ylidene)butanedioic acid] | inhibition of proliferation |
| O=C(O)CC(=Cc1ccccc1)C(=O)O [(4), 2-(phenylmethylidene)butanedioic acid] | inhibition of proliferation |
| C=CCC(C(=O)O)/C(=C/c1ccc(F)cc1)C(=O)O (stereo not shown) [(7), 2-[(4-flurophenyl)methylidene]-3-(prop-2-ene-1-yl)butanedioic acid] | inhibition of proliferation |
| O=C(O)CC(=Cc1ccc(F)cc1)C(=O)O [Compound (5), 2-[(4-fluorophenyl)methylidene]butanedioic acid] | inhibition of proliferation |
